Where two headings read alike, the source gives them in different places.

Test [1] deals with Phosphorylation of ERK1/2 in AsPC-1 cells. The test can be described thus: Phospho-ERK1/2 MSD assay. Type of test: cell-based. The method, then:
Sixteen hours prior to compound treatment, AsPC-1 cells were seeded in 96-well cell culture plates at a density of 25,000 cells/well and incubated at 37° C., 5% CO2. A compound dose-response titration was diluted in growth media, added to appropriate wells of a cell culture plate, and then incubated at 37° C., 5% CO2 for 2 hours.

For test [2], the target named is His-tagged KRAS G12D protein (Homo sapiens, UniProt P01116, G12D). The test can be described thus: KRAS G12D TR-FRET assay (binding). The conditions noted are these: biotinylated KRPep-2d substrate, GDP in assay buffer.
Sequence of His-tagged KRAS G12D protein (P01116 1-188 isoform P01116-2 G12D): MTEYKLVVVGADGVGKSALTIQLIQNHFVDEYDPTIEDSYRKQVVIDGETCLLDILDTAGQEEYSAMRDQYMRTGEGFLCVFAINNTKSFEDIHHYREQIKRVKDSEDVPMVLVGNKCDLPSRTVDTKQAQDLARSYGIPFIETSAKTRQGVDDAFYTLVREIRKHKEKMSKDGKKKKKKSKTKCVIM
Description: The plate was incubated for 30 minutes at room temperature. Biotinylated KRPep-2d substrate (Amgen) was diluted to 20 nM in Assay Buffer and 2 L was added to all wells and incubated for 1 hour at room temperature. Detection Reagent (0.4 nM LANCE Eu-W1024 Anti-6xHis (Perkin Elmer AD0401), 5 nM streptavidin-d^2 (Cisbio 610SADLA)) was prepared in Assay Buffer, then 4 μL was added to the plate and incubated for 1 hour at room temperature.
The mark [3] stands for this setting: Homo sapiens, ASPC1, read-out: 2 h p-ERK (AsPC-1 cells), IC50 (μM), 2 hours compound treatment.

Regarding `CCc1c(F)ccc2cc(O)cc(-c3ncc4c(N5CCOCC(S(N)(=O)=O)C5)nc(OC[C@@]56CCCN5C[C@H](F)C6)nc4c3F)c12` (stereo partly drawn) [Example 63, 4-(7-(8-Ethyl-7-fluoro-3-hydroxy-naphthalen-1-yl)-8-fluoro-2-(((2R,7aS)-2-fluorotetrahydro-1H-pyrrolizin-7a(5H)-yl)meth-oxy)pyrido[4,3-d]pyrimidin-4-yl)-1,4-oxazepane-6-sulfonamide], the half-maximal inhibitory concentration (IC50) is 1.38 µM in test [1] (setting [3]) and 5 nM in test [2].
For `CCc1c(F)ccc2cc(O)cc(-c3ncc4c(N5CCOC6CC65)nc(OC[C@@]56CCCN5C[C@H](F)C6)nc4c3F)c12` (stereo partly drawn) [Example 66, 4-(4-((1R,6S)-2-oxa-5-azabicyclo[4.1.0]heptan-5-yl)-8-fluoro-2-(((2R,7aS)-2-fluorotetrahydro-1H-pyrrolizin-7a(5H)-yl)methoxy)-pyrido[4,3-d]pyrim-idin-7-yl)-5-ethyl-6-fluoronaphthalen-2-ol] the same measures were 0.592 µM and 15 nM.
In the same order, the values of `CCc1c(F)ccc2cc(O)cc(-c3ncc4c(N5CCOCC(=O)C5)nc(OCC56CCCN5CC(F)C6)nc4c3F)c12` [Example 67, 4-(7-(8-ethyl-7-fluoro-3-hydroxy-naphthalen-1-yl)-8-fluoro-2-(((2R,7aS)-2-fluorotetrahydro-1H-pyrrolizin-7a(5H)-yl)methoxy)-pyrido[4,3-d]pyrim-idin-4-yl)-1,4-oxazepan-6-one] are 0.072 µM and 2 nM.
Turning to `C#CC1(O)COCCN(c2nc(OC[C@@]34CCCN3C[C@H](F)C4)nc3c(F)c(-c4cc(O)cc5ccc(F)c(CC)c45)ncc23)C1` (stereo partly drawn) [Example 70, 4-(7-(8-ethyl-7-fluoro-3-hydroxynaphthalen-1-yl)-8-fluoro-2-(((2R,7aS)-2-fluorotetrahydro-1H-pyrrolizin-7a(5H)-yl)methoxy)pyrido[4,3-d]pyrimidin-4-yl)-6-ethynyl-1,4-oxazepan-6-ol], the values for the IC50 in test [1] (setting [3]) and in test [2] were 0.643 µM and 1 nM, respectively.
As for `CCc1c(F)ccc2cc(O)cc(-c3ncc4c(N5CCOCC(O)(CC)C5)nc(OC[C@@]56CCCN5C[C@H](F)C6)nc4c3F)c12` (stereo partly drawn) [Example 73, 6-Ethyl-4-(7-(8-ethyl-7-fluoro-3-hydroxynaphthalen-1-yl)-8-fluoro-2-(((2R,7aS)-2-fluorotetrahydro-1H-pyrrolizin-7a(5H)-yl)methoxy)pyrido[4,3-d]pyrimidin-4-yl)-1,4-oxazepan-6-ol], the IC50 in test [1] (setting [3]) is 0.063 µM; in test [2], 3 nM.
On to `CCc1c(F)ccc2cc(O)cc(-c3ncc4c(N5CCOCC(O)(C6CC6)C5)nc(OC[C@@]56CCCN5C[C@H](F)C6)nc4c3F)c12` (stereo partly drawn) [Example 74, 6-Cyclopropyl-4-(7-(8-ethyl-7-fluoro-3-hydroxynaphthalen-1-yl)-8-fluoro-2-(((2R,7aS)-2-fluorotetrahydro-1H-pyrrolizin-7a(5H)-yl)methoxy)pyrido[4,3-d]pyrimidin-4-yl)-1,4-oxazepan-6-ol], for which the IC50 came out at 0.436 µM in test [1] (setting [3]) and 4 nM in test [2].
As for `CCc1c(F)ccc2cc(O)cc(-c3ncc4c(N5CCOC(C(N)=O)C5)nc(OC[C@@]56CCCN5C[C@H](F)C6)nc4c3F)c12` (stereo partly drawn) [Example 76, 4-(7-(8-Ethyl-7-fluoro-3-hydroxynaphthalen-1-yl)-8-fluoro-2-(((2R,7aS)-2-fluorotetrahydro-1H-pyrrolizin-7a(5H)-yl)methoxy)pyrido[4,3-d]pyrimidin-4-yl)morpholine-2-carboxamide], the IC50 came out at 3.33 µM in test [1] (setting [3]) and 6 nM in test [2].
For the compound `CCc1cccc2cc(O)cc(-c3ncc4c(N5CCOC[C@@](C)(O)C5)nc(OC[C@@]56CCCN5C[C@H](F)C6)nc4c3F)c12` [Example 78, (S)-4-(7-(8-Ethyl-3-hydroxynaphthalen-1-yl)-8-fluoro-2-(((2R,7aS)-2-fluorotetrahydro-1H-pyrrolizin-7a(5H)-yl)methoxy)pyrido [4,3-d]pyrimidin-4-yl)-6-methyl-1,4-oxazepan-6-ol], the IC50 in test [1] (setting [3]) was determined as 0.013 µM; in test [2], 1 nM.
Regarding `CCc1c(F)ccc2cc(O)cc(-c3ncc4c(N5CCOC[C@](O)(CC)C5)nc(OC[C@@]56CCCN5C[C@H](F)C6)nc4c3F)c12` [Example 79, (S)-6-Ethyl-4-(7-(8-ethyl-7-fluoro-3-hydroxynaphthalen-1-yl)-8-fluoro-2-(((2R,7aS)-2-fluorotetrahydro-1H-pyrrolizin-7a(5H)-yl)methoxy)pyrido [4,3-d]pyrimidin-4-yl)-1,4-oxazepan-6-o1], the IC50 was 0.024 µM in test [1] (read-out: 2 h p-ERK (AsPC-1 cells), IC50, 2 hours compound treatment) and 1 nM in test [2].
